# Laboratory results from US20160058304A1, “SYSTEM AND METHOD FOR VESSEL ARCHITECTURAL IMAGING” (priority 2013, published 2016).
# How the values were obtained:
# recurrent glioblastomas [1] = test: Phase II clinical trial of cediranib in recurrent glioblastoma, retrospective VAI (MRI) analysis; type: in vivo, human
# Source text: The study was approved by the institutional review board and informed consent was obtained from all subjects. Subject data included 13 females and 17 males diagnosed with a recurrent glioblastoma, average age 52 years, range 20-78 years. After study termination, nine subjects received one subsequent cycle of salvage chemotherapy, eight subjects received two cycles, one subject received three cycles, two subjects had undisclosed information on salvage chemotherapy and one subject received stereotactic radiosurgery.
# Baseline MRI examinations were acquired prior to therapy onset (days −5 and −1), and then repeated on days 1, 28, 56 and 112 after cediranib (AstraZeneca Pharmaceuticals) anti-angiogenic therapy onset or until disease progression according to the Macdonald criteria. All imaging were performed on a 3 Tesla Magnetom Trio MRI system (Siemens Medical Solutions) as follows:
# 4. Dynamic susceptibility contrast (DSC) perfusion images. Axial dual-echo echo-planar images with repetition-time 1.33 s, echo-times 34 ms and 103 ms, slice-thickness 5 mm, inter-slice distance 2.5 mm, in-plane resolution 1.70:1.70 mm, matrix size 128:128, 10 slices and 120 volumes. After approximately 85 s of imaging, a 0.2 mmol kg−1 dose of Gd-DTPA was injected at 5 cc s−1.
# We obtained relaxation rate curves for VAI analysis, perfusion values, blood volumes and mean transit times using established tracer kinetic models on the DSC images, corrected for contrast agent leakage (from blood-brain-barrier breakdown or resection) and fitted to a gammavariate curve for better visualization of vessel vortex effects. It has been speculated that contrast agent leakage is the reason for the clockwise vortex effect. […] Here, the pre-dose of Gd-DTPA during DCE imaging saturated potential leaky tumor tissue in the DSC images thereby minimizing the influence of leakage-induced T1-shortening effects. Relaxation rate curves not suited for analysis, conveying highly fluctuating time-courses from partial volume effects, voxel shifts and physiological pulsations were excluded from further analysis. Across all 30 subjects, an average of 78.21 percent±12.78 percent (standard deviation) of all tumor voxels met the inclusion criteria. To account for potential global systemic effects from hypertension, tumor relaxation rate curves were scaled with corresponding slice-specific mean, normal-tissue reference curves. In all figures showing vessel vortex curves, the tails of the vortex curves have been cut short to better visualize vortex direction. VAI analysis was performed using custom-made software in Matlab and traditional MRI was analyzed in nordicICE (NordicNeuroLab AS).
# A subject was assumed to have an increase (decrease) in voxels with a clockwise vortex direction if the clockwise- to counter-clockwise ratio was higher (lower) than the 95 percent confidence interval of the population arithmetic mean for two consecutive imaging time points. […] Differences in VAI parameters during therapy were assessed using pairwise Wilcoxons Signed Rank test. Differences in tumor volumes, vessel caliber, permeability, perfusion and mean transit times were assessed using Mann-Whitney tests. Associations between changes in vessel vortex direction ratios and progression-free survival and overall survival were assessed using multinomial logistic regression, Kaplan-Meier survival analysis and Cox regression after adjustments for age, extent of resection, neurological performance, salvage chemotherapy and stereotactic radiosurgery after study termination as well as changes in permeability (Ktrans), T1-weighted contrast-enhanced tumor volume and T2-weighted FLAIR tumor volume prior to, and during, anti-angiogenic therapy. For all tests, P=0.05 was considered significant (with Holm-Bonferroni correction for multiple comparisons) and pixel values below a 5 percent percentile and above a 95 percent percentile were removed prior to analysis to reduce the influence of outliers. […]
# recurrent glioblastomas [2] = details: background statement on cediranib trial; cited from earlier work
structure (smiles),measurement,setting,value
COc1cc2c(Oc3ccc4[nH]c(C)cc4c3F)ncnc2cc1OCCCN1CCCC1 [cediranib],Relative number of image voxels with a clockwise vortex direction in the tumor after therapy onset,"recurrent glioblastomas [1]; 30 subjects collectively, pair-wise Wilcoxons Signed Ranks test P<0.05",significant increase
same,"Median overall survival, nonresponders","recurrent glioblastomas [1]; non-responders = relative decrease in image voxels with clockwise vortex direction, recurrent glioblastoma",146 days
same,"Median overall survival, non-responding patients","recurrent glioblastomas [1]; non-responders with stable or reduced perfusion, P<0.001",169 days
same,"Median overall survival, responding subjects","recurrent glioblastomas [1]; responders = relative increase in image voxels with clockwise vortex direction at two consecutive imaging time points, recurrent glioblastoma",341 days
same,Longer survival of responding vs non-responding patients,recurrent glioblastomas [1]; responders by increased perfusion vs non-responders,approximately 6 months
same,Shunt index values at days 1 and 28,"recurrent glioblastomas [1]; responders by vascular normalization compared to non-responders, P<0.05",reduced
same,"Median overall survival, responding patients","recurrent glioblastomas [1]; responders identified by increased perfusion (vascular normalization), P<0.001",348 days
same,Contrast enhanced and FLAIR tumor volumes at day 28,"recurrent glioblastomas [1]; responders vs non-responders, Mann-Whitney P<0.05",significant reductions
same,Whole-tumor vessel calibers compared to pre-treatment,"recurrent glioblastomas [1]; responding subjects, P<0.01",significant reductions
same,Longer survival of patients whose tumor perfusion increased during treatment,recurrent glioblastomas [2],approximately 6 months
